Experimental data taken from the supplement of paper PMC5579334.

Tests used:
HS-PSS [1] = assay: % inhibition of CellTiter-Glo viability at highest tested concentration (72 h), relative to DMSO and benzethonium chloride controls; higher = more inhibition
In short: (§1)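 Viability of MPNST cell lines and primary human Schwann cells was read as CellTiter-Glo ATP luminescence after 72 h at 37 °C, 5% CO2, in 384-well plates seeded with 750–1000 cells per well. Each compound had been preprinted at five concentrations in 10-fold steps. Signals were scaled between vehicle and positive-control wells, duplicates averaged where present, and fitted with four-parameter logistic curves. Drug sensitivity score and relative IC50 (censored at the top concentration) come from those fits, and percent inhibition is taken at the top concentration.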

HS-Sch-2 [2] = assay: as above
In short: as §1

YST-1 [3] = assay: as above
In short: as §1

HS-PSS [4] = assay: drug sensitivity score (DSS, CellTox-Green cytotoxicity, 72 h) (DSS (dimensionless)); higher = more cytotoxic; extreme values may be limits of the assay
In short: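 MPNST cell lines and primary human Schwann cells were grown for 72 h at 37 °C in 384-well plates containing five 10-fold compound dilutions. CellTox-Green, added before seeding at a final 1:1000 dilution, gave fluorescence from DNA released by disrupted cells, and signals were scaled to vehicle and positive-control wells. Curves were fitted with a four-parameter logistic model. Drug sensitivity score and relative IC50 come from these fits, with IC50 censored at the top concentration.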

HS-PSS [5] = assay: drug sensitivity score (DSS, CellTiter-Glo viability, 72 h) (DSS (dimensionless)); higher = more sensitive; extreme values may be limits of the assay
In short: as §1

HS-Sch-2 [6] = assay: as above
In short: as §1

YST-1 [7] = assay: as above
In short: as §1

Row | SMILES | % inhibition (HS-PSS [1]) [%] | % inhibition (HS-Sch-2 [2]) [%] | % inhibition (YST-1 [3]) [%] | drug sensitivity score (HS-PSS [4]) | drug sensitivity score (HS-PSS [5]) | drug sensitivity score (HS-Sch-2 [6]) | drug sensitivity score (YST-1 [7])
1 | COc1ccc(C[C@H](NC(=O)[C@H](C)NC(=O)CN2CCOCC2)C(=O)N[C@@H](Cc2ccccc2)C(=O)[C@@]2(C)CO2)cc1 [ONX-0914] (max concentration tested 10000 nM) | 100 | 101 | 101 | 17.5 | 17.6 | 21.7 | 18.1
2 | COc1cc(NS(C)(=O)=O)ccc1Nc1c2ccccc2nc2ccccc12 [Amsacrine] (max concentration tested 10000 nM) | 55 | 81.6 | 86.6 | 1.27 | 5.76 | 11.1 | 15.6
3 | N#Cc1ccc2[nH]c(O)c(-c3ccc(CN4CCOCC4)cn3)c2c1 [AZD-1080] (max concentration tested 10000 nM) | 43.5 | 77.1 | 4.49 | 0 | 2.89 | 3.74 | 0
4 | CNC(=O)c1ccccc1Nc1nc(Nc2ccc3c(c2OC)CCC[C@H](N2CCN(CCO)CC2)C3)ncc1Cl (max concentration tested 5000 nM) | 86.5 | 98.5 | 82.8 | 2.99 | 15 | 7.99 | 8.71
5 | c1cc(CN2CCCNCCNCCCNCC2)ccc1CN1CCCNCCNCCCNCC1 [Plerixafor] (max concentration tested 10000 nM) | 14.2 | 5.96 | -8.03 | 0 | 0.55 | 0 | 0
6 | Cc1cc(-c2ncc(CC(=O)Nc3ccc(-c4cnccn4)cn3)cc2C)ccn1 [NVP-LGK974] (max concentration tested 10000 nM) | 45.4 | 52.2 | 1.59 | 0 | 3.51 | 3 | 0
7 | CN(C)C(=N)NC(=N)N [Metformin] (max concentration tested 100000 nM) | 19.4 | 7.35 | -0.71 | 0 | 0.59 | 0 | 0
8 | Cc1nc(-c2cn3c(n2)-c2ccc(-c4cnn(C(C)(C)C(N)=O)c4)cc2OCC3)n(C(C)C)n1 [Taselisib] (max concentration tested 1000 nM) | 26.4 | 18.1 | 66.6 | 0 | 0.7 | 0.87 | 11.9
9 | CCOc1cc2ncc(C#N)c(Nc3ccc(F)c(Cl)c3)c2cc1NC(=O)/C=C/CN(C)C [Pelitinib] (max concentration tested 2500 nM) | 73.9 | 89.6 | 47.9 | 1.05 | 12.8 | 11 | 4.87
10 | CCN(CC)C(=S)SSC(=S)N(CC)CC [Disulfiram] (max concentration tested 100000 nM) | 101 | 101 | 101 | 8.67 | 30.6 | 27 | 30.7
11 | Cn1cc(C[C@@H](N)C(=O)O)c2ccccc21 [1-methyl-D-tryptophan] (max concentration tested 5000 nM) | 6.24 | 2.88 | -5.86 | 0 | 0 | 0 | 0
12 | C#Cc1cccc(Nc2ncnc3cc4c(cc23)OCCOCCOCCO4)c1 [Icotinib] (max concentration tested 10000 nM) | 16.4 | 19.6 | 23.8 | 0 | 0.72 | 1.37 | 1.96
13 | CNc1nc(Nc2cn(C(C)(C)C#N)nc2C)ncc1C(F)(F)F [GNE-0877] (max concentration tested 1000 nM) | 23.4 | 5.3 | -4.9 | 0 | 2.29 | 0 | 0
14 | CNC(=O)c1c(F)cccc1Nc1nc(Nc2cc3c(cc2OC)CCN3C(=O)CN(C)C)nc2[nH]ccc12 (max concentration tested 2500 nM) | 59.1 | 11.8 | 66.3 | 1.53 | 13.9 | 0.22 | 11.8
15 | O=C(c1ccc(F)c(F)c1Nc1ccc(I)cc1F)N1CC(O)([C@@H]2CCCCN2)C1 [Cobimetinib] (max concentration tested 1000 nM) | 49.3 | 69.5 | -5.92 | 0.01 | 4.46 | 4.02 | 0
16 | CCN(c1cc(-c2ccc(CN3CCOCC3)cc2)cc(C(=O)NCc2c(C)cc(C)[nH]c2=O)c1C)C1CCOCC1 [Tazemetostat] (max concentration tested 10000 nM) | 10.9 | 12.6 | 0.37 | 0 | 0.52 | 0.07 | 0
17 | O[C@H]1CC[C@H](Nc2ncc3nc(Nc4c(F)cc(F)cc4F)n([C@H]4CCOC4)c3n2)CC1 [Tanzisertib] (max concentration tested 10000 nM) | -0.16 | -2.81 | 11.6 | 0 | 0 | 0 | 1.56
18 | CN(C[C@@H]1COCCO1)S(=O)(=O)Nc1ccc2ccc3ncc(-c4cnn(C)c4)cc3c(=O)c2c1 [MK-2461] (max concentration tested 10000 nM) | 25.5 | 55.1 | 67.3 | 0 | 0.69 | 2.68 | 6.02
